Measurements reported in PMC10729961, “Putative purine nucleoside interacting residues in the malaria parasite purine uptake transporter PfENT1 are critical for transporter function” (PLOS ONE, 2023).

How the values were obtained:
Experiment in all cases: [3H]adenosine uptake assay, competition with cold uridine
Assay type in all cases: cell-based
[1] = target: T1, PfENT1 A134C (Plasmodium falciparum, UniProt Q8IDM6, A134C)
T1 construct: expressed in transfected cells; host or cells: purine auxotrophic yeast (ade2Δ, fui1Δ), pCM189 episomal plasmid
Experimental: (§1) The radiolabeled uptake assay measures the ability of an unlabeled purine or pyrimidine substrate to inhibit the uptake of radiolabeled substrate into yeast via PfENT1 as previously described. Yeast strains containing PfENT1 (mutant or WT) were grown overnight in SDM media to a final OD600 between 0.2 and 0.5. Purine auxotrophic yeast used as a negative control were grown in YPD media. Yeast were spun down and washed three times with 15 mL phosphate buffered saline (PBS; 137 mM NaCl, 2.7 mM KCl, 10 mM KH2PO4, 10 mM Na2HPO4, pH 7.4). The final volume of yeast in PBS varied but it was diluted to a final OD600 = 0.2. […] For the dilution series, unlabeled purine/pyrimidine (Fischer Scientific Cat. #12-565-501) with a starting concentration of 25 mM was serially diluted 1:3 in PBS for a final concentration range of 3.28 nM to 6.25 mM. Yeast were incubated with radioactive substrate and the unlabeled purine/pyrimidine for 15 min. […] This ensured that competition only occurred at the transporter and not at cytoplasmic metabolic enzymes, because those are different for purines and pyrimidines. For determination of minimal and maximal uptake, yeast strains were incubated without radioactivity or with radioactivity but no cold substrate competition, respectively. […] Mats were allowed to air dry and sealed in sample bags with 5 mL of BetaPlate Scint scintillant cocktail (Perkin Elmer Cat. #1205–4401). The amount of radioactivity in each well was measured by liquid scintillation counting using a 1450 MicroBeta TriLux (Perkin Elmer). The counts per minute (cpm) were recorded and technical triplicates were averaged. IC50 values were calculated, and statistical analysis was performed using GraphPad/Prism9 software. Each experiment was repeated at least three times on separate days.
(§2) Statistical significance was calculated using one-way analysis of variance (ANOVA) with GraphPad/Prism9 software. IC50 values were calculated using the non-linear regression dose-response inhibition log(inhibitor) vs normalized response program. Cpm data was background subtracted by the cpm in yeast expressing WT PfENT1 in cold purine/pyrimidine. Data was normalized to the highest value for each mutant.

[2] = target: T2, PfENT1 D287C (Plasmodium falciparum, UniProt Q8IDM6, D287C); conditions: cold uridine vs [3H]adenosine uptake, 15 min
T2 construct: expressed in transfected cells; host or cells: purine auxotrophic Saccharomyces cerevisiae (ade2Δ, fui1Δ), pCM189 episomal plasmid
Experimental: as §1, §2

[3] = target: T3, PfENT1 F286C (Plasmodium falciparum, UniProt Q8IDM6, F286C)
T3 construct: expressed in transfected cells; host or cells: purine auxotrophic yeast (ade2Δ, fui1Δ), pCM189 episomal plasmid
Experimental: as §1, §2

[4] = target: T4, PfENT1 F288C (Plasmodium falciparum, UniProt Q8IDM6, F288C)
T4 construct: expressed in transfected cells; host or cells: purine auxotrophic Saccharomyces cerevisiae (ade2Δ, fui1Δ), pCM189 episomal plasmid
Experimental: as §1, §2

[5] = target: T5, PfENT1 I137C (Plasmodium falciparum, UniProt Q8IDM6, I137C)
T5 construct: expressed in transfected cells; host or cells: purine auxotrophic yeast (ade2Δ, fui1Δ), pCM189 episomal plasmid
Experimental: as §1, §2

[6] = target: T6, PfENT1 L289C (Plasmodium falciparum, UniProt Q8IDM6, L289C)
T6 construct: expressed in transfected cells; host or cells: purine auxotrophic Saccharomyces cerevisiae (ade2Δ, fui1Δ), pCM189 episomal plasmid
Experimental: as §1, §2

[7] = target: T7, PfENT1 L50C (Plasmodium falciparum, UniProt Q8IDM6, L50C); conditions: cold uridine vs [3H]adenosine uptake, 15 min
T7 construct: expressed in transfected cells; host or cells: purine auxotrophic yeast (ade2Δ, fui1Δ), pCM189 episomal plasmid
Experimental: as §1, §2

[8] = target: T8, PfENT1 N51C (Plasmodium falciparum, UniProt Q8IDM6, N51C)
T8 construct: expressed in transfected cells; host or cells: purine auxotrophic yeast (ade2Δ, fui1Δ), pCM189 episomal plasmid
Experimental: as §1, §2

[9] = target: T9, PfENT1 Q135C (Plasmodium falciparum, UniProt Q8IDM6, Q135C); conditions: cold uridine vs [3H]adenosine uptake, 15 min
T9 construct: expressed in transfected cells; host or cells: purine auxotrophic yeast (ade2Δ, fui1Δ), pCM189 episomal plasmid
Experimental: as §1, §2

[10] = target: T10, PfENT1 R291C (Plasmodium falciparum, UniProt Q8IDM6, R291C); conditions: cold uridine vs [3H]adenosine uptake, 15 min
T10 construct: expressed in transfected cells; host or cells: purine auxotrophic Saccharomyces cerevisiae (ade2Δ, fui1Δ), pCM189 episomal plasmid
Experimental: as §1, §2

[11] = target: T11, PfENT1 S290C (Plasmodium falciparum, UniProt Q8IDM6, S290C); conditions: cold uridine vs [3H]adenosine uptake, 15 min
T11 construct: expressed in transfected cells; host or cells: purine auxotrophic Saccharomyces cerevisiae (ade2Δ, fui1Δ), pCM189 episomal plasmid
Experimental: as §1, §2

[12] = target: T12, PfENT1 S48C (Plasmodium falciparum, UniProt Q8IDM6, S48C)
T12 construct: expressed in transfected cells; host or cells: purine auxotrophic yeast (ade2Δ, fui1Δ), pCM189 episomal plasmid
Experimental: as §1, §2

[13] = target: T13, PfENT1 S49C (Plasmodium falciparum, UniProt Q8IDM6, S49C)
T13 construct: expressed in transfected cells; host or cells: purine auxotrophic yeast (ade2Δ, fui1Δ), pCM189 episomal plasmid
Experimental: as §1, §2

[14] = target: T14, PfENT1 T136C (Plasmodium falciparum, UniProt Q8IDM6, T136C)
T14 construct: expressed in transfected cells; host or cells: purine auxotrophic yeast (ade2Δ, fui1Δ), pCM189 episomal plasmid
Experimental: as §1, §2

[15] = target: T15, PfENT1 V52C (Plasmodium falciparum, UniProt Q8IDM6, V52C)
T15 construct: expressed in transfected cells; host or cells: purine auxotrophic yeast (ade2Δ, fui1Δ), pCM189 episomal plasmid
Experimental: as §1, §2

[16] = target: T16, PfENT1 W53C (Plasmodium falciparum, UniProt Q8IDM6, W53C); conditions: cold uridine vs [3H]adenosine uptake, 15 min
T16 construct: expressed in transfected cells; host or cells: purine auxotrophic yeast (ade2Δ, fui1Δ), pCM189 episomal plasmid
Experimental: as §1, §2

[17] = target: T17, WT PfENT1 (Plasmodium falciparum, UniProt Q8IDM6)
T17 construct: expressed in transfected cells; host or cells: purine auxotrophic yeast (ade2Δ, fui1Δ), pCM189 episomal plasmid
Experimental: as §1, §2

[18] = system: purine auxotrophic yeast (ade2Δ, fui1Δ); conditions: ade2Δ strain; cold uridine vs [3H]adenosine uptake, 15 min
Experimental: as §1, §2

T4 sequence (Q8IDM6 whole entry F288C): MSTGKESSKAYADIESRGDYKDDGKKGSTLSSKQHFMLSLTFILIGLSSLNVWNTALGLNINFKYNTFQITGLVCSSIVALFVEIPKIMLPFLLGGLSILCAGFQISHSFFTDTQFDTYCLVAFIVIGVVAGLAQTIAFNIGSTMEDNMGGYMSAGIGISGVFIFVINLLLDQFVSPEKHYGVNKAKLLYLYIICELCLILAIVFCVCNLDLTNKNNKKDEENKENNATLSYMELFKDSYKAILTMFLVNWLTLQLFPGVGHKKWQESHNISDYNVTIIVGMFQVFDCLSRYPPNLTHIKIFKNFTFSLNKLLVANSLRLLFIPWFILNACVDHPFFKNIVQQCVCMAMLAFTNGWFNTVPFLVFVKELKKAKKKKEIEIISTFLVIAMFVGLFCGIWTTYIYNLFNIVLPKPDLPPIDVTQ
T15 sequence (Q8IDM6 whole entry V52C): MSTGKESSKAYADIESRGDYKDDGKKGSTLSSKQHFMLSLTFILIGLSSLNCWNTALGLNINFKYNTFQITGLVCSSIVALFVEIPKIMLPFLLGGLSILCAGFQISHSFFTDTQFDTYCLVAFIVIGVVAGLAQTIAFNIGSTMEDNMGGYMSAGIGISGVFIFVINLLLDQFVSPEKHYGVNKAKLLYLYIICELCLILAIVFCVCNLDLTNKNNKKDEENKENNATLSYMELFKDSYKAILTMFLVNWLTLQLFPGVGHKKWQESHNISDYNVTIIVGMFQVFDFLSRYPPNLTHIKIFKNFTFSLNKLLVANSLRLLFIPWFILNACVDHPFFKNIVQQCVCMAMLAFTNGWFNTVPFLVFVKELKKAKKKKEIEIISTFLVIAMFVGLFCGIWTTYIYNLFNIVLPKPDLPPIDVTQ
T3 sequence (Q8IDM6 whole entry F286C): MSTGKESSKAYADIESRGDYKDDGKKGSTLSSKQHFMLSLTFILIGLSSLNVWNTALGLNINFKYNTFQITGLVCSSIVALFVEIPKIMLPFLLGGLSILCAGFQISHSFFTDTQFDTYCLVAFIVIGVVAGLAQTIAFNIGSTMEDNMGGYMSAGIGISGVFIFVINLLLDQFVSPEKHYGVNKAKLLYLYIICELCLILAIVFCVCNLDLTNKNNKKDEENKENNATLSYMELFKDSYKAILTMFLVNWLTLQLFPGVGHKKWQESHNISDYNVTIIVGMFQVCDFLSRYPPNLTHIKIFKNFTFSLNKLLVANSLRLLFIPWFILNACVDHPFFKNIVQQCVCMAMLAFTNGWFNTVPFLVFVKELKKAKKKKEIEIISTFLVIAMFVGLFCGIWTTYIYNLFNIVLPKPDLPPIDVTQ
T12 sequence (Q8IDM6 whole entry S48C): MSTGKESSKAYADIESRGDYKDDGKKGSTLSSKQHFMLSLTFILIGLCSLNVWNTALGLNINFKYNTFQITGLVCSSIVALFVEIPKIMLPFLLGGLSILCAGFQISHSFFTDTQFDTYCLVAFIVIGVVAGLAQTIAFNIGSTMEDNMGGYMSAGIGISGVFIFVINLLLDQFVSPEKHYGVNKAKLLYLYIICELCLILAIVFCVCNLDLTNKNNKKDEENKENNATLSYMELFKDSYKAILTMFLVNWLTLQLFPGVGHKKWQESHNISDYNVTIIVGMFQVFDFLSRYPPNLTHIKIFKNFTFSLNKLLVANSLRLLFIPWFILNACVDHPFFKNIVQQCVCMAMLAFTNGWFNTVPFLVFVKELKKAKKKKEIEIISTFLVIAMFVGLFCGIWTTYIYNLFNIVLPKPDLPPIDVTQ
T8 sequence (Q8IDM6 whole entry N51C): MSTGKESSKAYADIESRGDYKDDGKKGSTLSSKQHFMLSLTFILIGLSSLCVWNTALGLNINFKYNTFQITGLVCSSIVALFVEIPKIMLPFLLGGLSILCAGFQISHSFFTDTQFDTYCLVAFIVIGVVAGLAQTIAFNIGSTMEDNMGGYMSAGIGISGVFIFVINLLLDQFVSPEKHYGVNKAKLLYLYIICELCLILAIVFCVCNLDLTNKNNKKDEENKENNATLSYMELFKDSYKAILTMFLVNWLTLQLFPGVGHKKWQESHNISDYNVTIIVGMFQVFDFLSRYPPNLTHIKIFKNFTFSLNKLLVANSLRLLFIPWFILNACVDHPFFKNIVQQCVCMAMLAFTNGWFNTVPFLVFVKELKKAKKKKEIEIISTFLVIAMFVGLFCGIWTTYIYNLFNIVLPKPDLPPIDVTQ
T6 sequence (Q8IDM6 whole entry L289C): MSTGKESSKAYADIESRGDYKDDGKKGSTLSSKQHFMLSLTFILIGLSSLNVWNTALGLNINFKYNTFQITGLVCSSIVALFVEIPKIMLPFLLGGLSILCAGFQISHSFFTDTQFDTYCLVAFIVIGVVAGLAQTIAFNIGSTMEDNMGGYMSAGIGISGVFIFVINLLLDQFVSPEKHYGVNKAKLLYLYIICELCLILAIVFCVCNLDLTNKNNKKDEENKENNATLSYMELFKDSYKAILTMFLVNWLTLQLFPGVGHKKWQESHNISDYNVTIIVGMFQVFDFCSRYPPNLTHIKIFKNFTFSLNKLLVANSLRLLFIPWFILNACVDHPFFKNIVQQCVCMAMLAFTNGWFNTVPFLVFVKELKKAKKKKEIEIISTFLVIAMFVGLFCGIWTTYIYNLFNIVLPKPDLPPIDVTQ
T14 sequence (Q8IDM6 whole entry T136C): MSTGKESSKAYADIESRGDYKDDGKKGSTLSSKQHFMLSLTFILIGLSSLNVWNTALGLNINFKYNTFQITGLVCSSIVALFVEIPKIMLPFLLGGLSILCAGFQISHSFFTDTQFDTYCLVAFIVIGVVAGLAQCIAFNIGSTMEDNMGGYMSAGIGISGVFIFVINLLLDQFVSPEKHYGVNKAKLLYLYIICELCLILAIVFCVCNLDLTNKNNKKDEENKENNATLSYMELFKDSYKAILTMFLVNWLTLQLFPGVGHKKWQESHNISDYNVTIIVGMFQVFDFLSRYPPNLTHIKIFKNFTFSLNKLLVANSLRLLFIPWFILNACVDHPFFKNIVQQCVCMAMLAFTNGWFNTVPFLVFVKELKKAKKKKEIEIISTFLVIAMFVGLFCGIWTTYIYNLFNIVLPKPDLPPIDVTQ
T5 sequence (Q8IDM6 whole entry I137C): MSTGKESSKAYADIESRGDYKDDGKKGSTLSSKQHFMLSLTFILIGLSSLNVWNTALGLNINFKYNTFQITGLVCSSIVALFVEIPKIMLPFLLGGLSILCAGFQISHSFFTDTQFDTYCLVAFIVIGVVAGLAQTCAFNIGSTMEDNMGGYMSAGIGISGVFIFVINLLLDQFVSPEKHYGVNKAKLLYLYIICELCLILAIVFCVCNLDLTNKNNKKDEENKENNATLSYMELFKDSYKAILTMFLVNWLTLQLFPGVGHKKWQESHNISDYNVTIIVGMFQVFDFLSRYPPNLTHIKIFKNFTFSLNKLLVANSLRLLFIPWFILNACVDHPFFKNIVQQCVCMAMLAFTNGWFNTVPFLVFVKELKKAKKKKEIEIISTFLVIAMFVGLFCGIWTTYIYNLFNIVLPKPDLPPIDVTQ
T1 sequence (Q8IDM6 whole entry A134C): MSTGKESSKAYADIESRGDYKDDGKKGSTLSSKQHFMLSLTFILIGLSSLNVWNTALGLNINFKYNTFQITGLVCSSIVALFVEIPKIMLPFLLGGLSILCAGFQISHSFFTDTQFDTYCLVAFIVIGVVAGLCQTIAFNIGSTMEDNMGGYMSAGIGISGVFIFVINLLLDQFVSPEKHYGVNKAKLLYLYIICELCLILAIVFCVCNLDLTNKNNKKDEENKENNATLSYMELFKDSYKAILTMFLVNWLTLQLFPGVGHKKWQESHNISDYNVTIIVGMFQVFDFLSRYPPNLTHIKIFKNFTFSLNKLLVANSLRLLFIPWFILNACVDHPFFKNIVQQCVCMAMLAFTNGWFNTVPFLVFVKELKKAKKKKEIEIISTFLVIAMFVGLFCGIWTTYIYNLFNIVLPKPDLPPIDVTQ
T13 sequence (Q8IDM6 whole entry S49C): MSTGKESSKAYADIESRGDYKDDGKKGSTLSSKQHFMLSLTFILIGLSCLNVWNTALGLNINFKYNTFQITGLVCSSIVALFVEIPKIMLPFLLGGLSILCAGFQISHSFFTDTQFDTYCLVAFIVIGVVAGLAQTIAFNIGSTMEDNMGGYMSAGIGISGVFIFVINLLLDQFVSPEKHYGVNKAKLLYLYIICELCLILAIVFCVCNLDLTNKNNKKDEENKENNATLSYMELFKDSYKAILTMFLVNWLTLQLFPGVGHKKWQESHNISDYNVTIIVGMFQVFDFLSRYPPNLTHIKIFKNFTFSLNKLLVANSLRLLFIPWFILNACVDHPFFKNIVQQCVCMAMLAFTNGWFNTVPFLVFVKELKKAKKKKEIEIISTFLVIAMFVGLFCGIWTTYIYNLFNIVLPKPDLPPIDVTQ
T17 sequence (Q8IDM6 whole entry): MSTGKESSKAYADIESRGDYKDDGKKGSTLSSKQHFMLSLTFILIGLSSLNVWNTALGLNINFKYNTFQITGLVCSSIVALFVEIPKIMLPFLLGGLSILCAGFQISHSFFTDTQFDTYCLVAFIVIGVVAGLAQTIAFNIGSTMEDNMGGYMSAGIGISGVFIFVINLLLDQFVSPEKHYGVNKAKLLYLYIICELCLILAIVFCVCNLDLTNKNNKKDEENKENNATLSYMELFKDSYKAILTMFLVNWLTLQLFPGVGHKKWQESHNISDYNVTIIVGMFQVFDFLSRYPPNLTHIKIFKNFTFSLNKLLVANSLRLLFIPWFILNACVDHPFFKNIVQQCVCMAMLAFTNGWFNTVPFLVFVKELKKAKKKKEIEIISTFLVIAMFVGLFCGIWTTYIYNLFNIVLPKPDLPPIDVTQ

Structure (SMILES): O=c1ccn([C@@H]2O[C@H](CO)[C@@H](O)[C@H]2O)c(=O)[nH]1 [Uridine, uridine]
- IC50 [1]: 1020 ± 207 µM
- Mutant/WT Ratio Uridine ([1]; A134C, ratio of IC50 values): 1.02
- Average IC50 (μM) Uridine [2]: no uptake
- IC50 [3]: 1210 ± 139 µM
- Mutant/WT Ratio Uridine ([3]; F286C, ratio of IC50 values): 1.21
- IC50 [4]: 850 ± 138 µM
- Mutant/WT Ratio Uridine ([4]; F288C, ratio of IC50 values): 0.85
- IC50 [5]: 904 ± 21 µM
- Mutant/WT Ratio Uridine ([5]; I137C, ratio of IC50 values): 0.91
- IC50 [6]: 905 ± 164 µM
- Mutant/WT Ratio Uridine ([6]; L289C, ratio of IC50 values): 0.91
- Average IC50 (μM) Uridine [7]: no uptake
- IC50 [8]: 30.9 ± 1 µM
- Mutant/WT Ratio Uridine ([8]; N51C, ratio of IC50 values): 0.031
- Average IC50 (μM) Uridine [9]: no uptake
- Average IC50 (μM) Uridine [10]: no uptake
- Average IC50 (μM) Uridine [11]: no uptake
- IC50 [12]: 801 ± 46 µM
- Mutant/WT Ratio Uridine ([12]; S48C, ratio of IC50 values): 0.8
- IC50 [13]: 1060 ± 30 µM
- Mutant/WT Ratio Uridine ([13]; S49C, ratio of IC50 values): 1.06
- IC50 [14]: 786 ± 87 µM
- Mutant/WT Ratio Uridine ([14]; T136C, ratio of IC50 values): 0.79
- IC50 [15]: 2820 ± 1440 µM
- Mutant/WT Ratio Uridine ([15]; V52C, ratio of IC50 values): 2.83
- Average IC50 (μM) Uridine [16]: no uptake
- IC50 [17]: 997 ± 90 µM
- Average IC50 (μM) Uridine [18]: no uptake
